Reference: PubChem BioAssay AID2060886 (Molecular Pharmacology Branch, DTP, NCI, 2025)

Tested on: 653999-131-R-J2-PDC complex spheroids, growth inhibition
Assay: Anticancer human tumor 653999-131-R-J2-PDC patient-derived lung adenocarcinoma cell line growth inhibition [RAS]
Conditions: for IC50: curve of first compound; for viability, T/C: stronger effect = lower value
How it was run: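 Agents were tested in combination matrices in half-log decrements from a top concentration at or near clinical Cmax (10 microM if undetermined). Targets were multi-cell spheroids of tumour lines plus HUVEC and MSC stromal cells.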

[1] = second compound 0.0316 µM, first compound 0.0316 µM
[2] = second compound 0.0316 µM, first compound 0.1 µM
[3] = second compound 0.0316 µM, first compound 0.316 µM
[4] = second compound 0.0316 µM, first compound 1 µM
[5] = second compound 0.0316 µM, first compound 3.16 µM
[6] = second compound 0.0316 µM, first compound 10 µM
[7] = second compound 0.1 µM, first compound 0.0316 µM
[8] = second compound 0.1 µM, first compound 0.1 µM
[9] = second compound 0.1 µM, first compound 0.316 µM
[10] = second compound 0.1 µM, first compound 1 µM
[11] = second compound 0.1 µM, first compound 3.16 µM
[12] = second compound 0.1 µM, first compound 10 µM
[13] = second compound 0.316 µM, first compound 0.0316 µM
[14] = second compound 0.316 µM, first compound 0.1 µM
[15] = second compound 0.316 µM, first compound 0.316 µM
[16] = second compound 0.316 µM, first compound 1 µM
[17] = second compound 0.316 µM, first compound 3.16 µM
[18] = second compound 0.316 µM, first compound 10 µM
[19] = second compound 1 µM, first compound 0.0316 µM
[20] = second compound 1 µM, first compound 0.1 µM
[21] = second compound 1 µM, first compound 0.316 µM
[22] = second compound 1 µM, first compound 1 µM
[23] = second compound 1 µM, first compound 3.16 µM
[24] = second compound 1 µM, first compound 10 µM
[25] = second compound 3.16 µM, first compound 0.0316 µM
[26] = second compound 3.16 µM, first compound 0.1 µM
[27] = second compound 3.16 µM, first compound 0.316 µM
[28] = second compound 3.16 µM, first compound 1 µM
[29] = second compound 3.16 µM, first compound 3.16 µM
[30] = second compound 3.16 µM, first compound 10 µM
[31] = second compound 10 µM, first compound 0.0316 µM
[32] = second compound 10 µM, first compound 0.1 µM
[33] = second compound 10 µM, first compound 0.316 µM
[34] = second compound 10 µM, first compound 1 µM
[35] = second compound 10 µM, first compound 3.16 µM
[36] = second compound 10 µM, first compound 10 µM
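Note: spheroids exposed to the agents for seven days before the readout.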

Q: How did the IC50 (second compound 0.0316 µM) turn out when CC(=O)OC12COC1CC(O)C1(C)C(=O)C(O)C3=C(C)C(OC(=O)C(O)C(NC(=O)OC(C)(C)C)c4ccccc4)CC(O)(C(OC(=O)c4ccccc4)C21)C3(C)C (stereo unspecified) + C#Cc1c(F)ccc2cc(O)cc(-c3ncc4c(N5CC6CCC(C5)N6)nc(OCC56CCCN5CC(F)C6)nc4c3F)c12 was run?
A: 31.6 nM

Q: And the IC50 (second compound 0.1 µM)?
A: < 31.6 nM

Q: And the IC50 (second compound 0.316 µM)?
A: < 31.6 nM

Q: What about the IC50 (second compound 1 µM) of the same molecule?
A: < 31.6 nM

Q: And the IC50 (second compound 3.16 µM)?
A: < 31.6 nM

Q: What about the IC50 (second compound 10 µM) of the same molecule?
A: < 31.6 nM

Q: What about the viability, T/C [1] of the same molecule?
A: 51%

Q: What about the viability, T/C [2] of the same molecule?
A: 58%

Q: And the viability, T/C [3]?
A: 47.7%

Q: What about the viability, T/C [4] of the same molecule?
A: 65.3%

Q: And the viability, T/C [5]?
A: 71.5%

Q: What about the viability, T/C [6] of the same molecule?
A: 59.4%

Q: And the viability, T/C [7]?
A: 50%

Q: What about the viability, T/C [8] of the same molecule?
A: 47%

Q: What about the viability, T/C [9] of the same molecule?
A: 50.4%

Q: What about the viability, T/C [10] of the same molecule?
A: 55.7%

Q: What about the viability, T/C [11] of the same molecule?
A: 57%

Q: What about the viability, T/C [12] of the same molecule?
A: 55.5%

Q: What about the viability, T/C [13] of the same molecule?
A: 43.4%

Q: What about the viability, T/C [14] of the same molecule?
A: 41.3%

Q: And the viability, T/C [15]?
A: 42.5%

Q: What about the viability, T/C [16] of the same molecule?
A: 50.1%

Q: What about the viability, T/C [17] of the same molecule?
A: 47.4%

Q: And the viability, T/C [18]?
A: 42.6%

Q: What about the viability, T/C [19] of the same molecule?
A: 25.7%

Q: What about the viability, T/C [20] of the same molecule?
A: 31.1%

Q: And the viability, T/C [21]?
A: 32.2%

Q: And the viability, T/C [22]?
A: 31.9%

Q: And the viability, T/C [23]?
A: 28.8%

Q: And the viability, T/C [24]?
A: 31%

Q: What about the viability, T/C [25] of the same molecule?
A: 19.6%

Q: What about the viability, T/C [26] of the same molecule?
A: 19.2%

Q: What about the viability, T/C [27] of the same molecule?
A: 15.8%

Q: And the viability, T/C [28]?
A: 16.2%

Q: What about the viability, T/C [29] of the same molecule?
A: 24.1%

Q: And the viability, T/C [30]?
A: 18.5%

Q: And the viability, T/C [31]?
A: 12.6%

Q: What about the viability, T/C [32] of the same molecule?
A: 11.7%

Q: And the viability, T/C [33]?
A: 12.4%

Q: And the viability, T/C [34]?
A: 13.5%

Q: And the viability, T/C [35]?
A: 17.4%

Q: And the viability, T/C [36]?
A: 13.3%

Q: Which IC50 (second compound 0.000949 µM) does the source give for O=C(c1ccc(F)c(F)c1Nc1ccc(I)cc1F)N1CC(O)([C@@H]2CCCCN2)C1 + CCn1c(-c2cc(N3CCN(C)CC3)cnc2C(C)OC)c2c3cc(ccc31)-c1csc(n1)CC(NC(=O)C1CC1C)C(=O)N1CCCC(N1)C(=O)OCC(C)(C)C2 here?
A: 43.1 nM

Q: What about the IC50 (second compound 0.003 µM) of the same molecule?
A: 18 nM

Q: And the IC50 (second compound 0.00949 µM)?
A: 7.57 nM

Q: What about the IC50 (second compound 0.03 µM) of the same molecule?
A: < 3.16 nM

Q: What about the IC50 (second compound 0.0949 µM) of the same molecule?
A: < 3.16 nM

Q: And the IC50 (second compound 0.3 µM)?
A: < 3.16 nM

Q: What about the viability, T/C (second compound 0.000949 µM, first compound 0.00316 µM) of the same molecule?
A: 77.8%

Q: What about the viability, T/C (second compound 0.000949 µM, first compound 0.01 µM) of the same molecule?
A: 73.4%

Q: And the viability, T/C (second compound 0.000949 µM, first compound 0.0316 µM)?
A: 48.3%

Q: And the viability, T/C (second compound 0.000949 µM, first compound 0.1 µM)?
A: 43.1%

Q: And the viability, T/C (second compound 0.000949 µM, first compound 0.316 µM)?
A: 14.6%

Q: And the viability, T/C (second compound 0.000949 µM, first compound 1 µM)?
A: 4.82%

Q: And the viability, T/C (second compound 0.003 µM, first compound 0.00316 µM)?
A: 52.7%

Q: And the viability, T/C (second compound 0.003 µM, first compound 0.01 µM)?
A: 54%

Q: What about the viability, T/C (second compound 0.003 µM, first compound 0.0316 µM) of the same molecule?
A: 45.5%

Q: And the viability, T/C (second compound 0.003 µM, first compound 0.1 µM)?
A: 34.8%

Q: What about the viability, T/C (second compound 0.003 µM, first compound 0.316 µM) of the same molecule?
A: 12%

Q: What about the viability, T/C (second compound 0.003 µM, first compound 1 µM) of the same molecule?
A: 4.41%

Q: And the viability, T/C (second compound 0.00949 µM, first compound 0.00316 µM)?
A: 52.2%

Q: And the viability, T/C (second compound 0.00949 µM, first compound 0.01 µM)?
A: 50.2%

Q: What about the viability, T/C (second compound 0.00949 µM, first compound 0.0316 µM) of the same molecule?
A: 34.1%

Q: What about the viability, T/C (second compound 0.00949 µM, first compound 0.1 µM) of the same molecule?
A: 14.4%

Q: And the viability, T/C (second compound 0.00949 µM, first compound 0.316 µM)?
A: 7.76%

Q: What about the viability, T/C (second compound 0.00949 µM, first compound 1 µM) of the same molecule?
A: 3.12%

Q: What about the viability, T/C (second compound 0.03 µM, first compound 0.00316 µM) of the same molecule?
A: 26.6%

Q: What about the viability, T/C (second compound 0.03 µM, first compound 0.01 µM) of the same molecule?
A: 16.9%

Q: What about the viability, T/C (second compound 0.03 µM, first compound 0.0316 µM) of the same molecule?
A: 15.1%

Q: And the viability, T/C (second compound 0.03 µM, first compound 0.1 µM)?
A: 9.74%

Q: And the viability, T/C (second compound 0.03 µM, first compound 0.316 µM)?
A: 4.27%

Q: What about the viability, T/C (second compound 0.03 µM, first compound 1 µM) of the same molecule?
A: 3.44%

Q: What about the viability, T/C (second compound 0.0949 µM, first compound 0.00316 µM) of the same molecule?
A: 19.7%

Q: And the viability, T/C (second compound 0.0949 µM, first compound 0.01 µM)?
A: 16.8%

Q: And the viability, T/C (second compound 0.0949 µM, first compound 0.0316 µM)?
A: 12.1%

Q: And the viability, T/C (second compound 0.0949 µM, first compound 0.1 µM)?
A: 5.71%

Q: And the viability, T/C (second compound 0.0949 µM, first compound 0.316 µM)?
A: 3.46%

Q: What about the viability, T/C (second compound 0.0949 µM, first compound 1 µM) of the same molecule?
A: 2.86%

Q: What about the viability, T/C (second compound 0.3 µM, first compound 0.00316 µM) of the same molecule?
A: 15.9%

Q: What about the viability, T/C (second compound 0.3 µM, first compound 0.01 µM) of the same molecule?
A: 15%

Q: What about the viability, T/C (second compound 0.3 µM, first compound 0.0316 µM) of the same molecule?
A: 10.6%

Q: What about the viability, T/C (second compound 0.3 µM, first compound 0.1 µM) of the same molecule?
A: 4.53%

Q: What about the viability, T/C (second compound 0.3 µM, first compound 0.316 µM) of the same molecule?
A: 4.09%

Q: And the viability, T/C (second compound 0.3 µM, first compound 1 µM)?
A: 1.86%

Q: CCC(CC)c1cc(NC2CCC(N)C2)n2nccc2n1 (stereo unspecified) + C#Cc1c(F)ccc2cc(O)cc(-c3ncc4c(N5CC6CCC(C5)N6)nc(OCC56CCCN5CC(F)C6)nc4c3F)c12 was tested. Which IC50 (second compound 0.0316 µM) did it give?
A: 2070 nM

Q: And the IC50 (second compound 0.1 µM)?
A: 1810 nM

Q: And the IC50 (second compound 0.316 µM)?
A: 1580 nM

Q: And the IC50 (second compound 1 µM)?
A: 1290 nM

Q: And the IC50 (second compound 3.16 µM)?
A: 31.6 nM

Q: What about the IC50 (second compound 10 µM) of the same molecule?
A: < 31.6 nM

Q: What about the viability, T/C [1] of the same molecule?
A: 91.1%

Q: And the viability, T/C [2]?
A: 110%

Q: What about the viability, T/C [3] of the same molecule?
A: 84.8%

Q: What about the viability, T/C [4] of the same molecule?
A: 105%

Q: What about the viability, T/C [5] of the same molecule?
A: 15.3%

Q: What about the viability, T/C [6] of the same molecule?
A: 28.7%

Q: What about the viability, T/C [7] of the same molecule?
A: 85.2%

Q: And the viability, T/C [8]?
A: 101%

Q: And the viability, T/C [9]?
A: 93.1%

Q: And the viability, T/C [10]?
A: 80.6%

Q: What about the viability, T/C [11] of the same molecule?
A: 14.2%

Q: What about the viability, T/C [12] of the same molecule?
A: 28.3%

Q: What about the viability, T/C [13] of the same molecule?
A: 71.7%

Q: And the viability, T/C [14]?
A: 75.5%

Q: And the viability, T/C [15]?
A: 75.4%

Q: And the viability, T/C [16]?
A: 72.3%

Q: What about the viability, T/C [17] of the same molecule?
A: 14.8%

Q: What about the viability, T/C [18] of the same molecule?
A: 17.3%

Q: What about the viability, T/C [19] of the same molecule?
A: 56.2%

Q: What about the viability, T/C [20] of the same molecule?
A: 57%

Q: What about the viability, T/C [21] of the same molecule?
A: 68.7%

Q: And the viability, T/C [22]?
A: 59.2%

Q: What about the viability, T/C [23] of the same molecule?
A: 10.7%

Q: And the viability, T/C [24]?
A: 25.3%

Q: What about the viability, T/C [25] of the same molecule?
A: 47.2%

Q: What about the viability, T/C [26] of the same molecule?
A: 45%

Q: And the viability, T/C [27]?
A: 49.3%

Q: And the viability, T/C [28]?
A: 39.4%

Q: And the viability, T/C [29]?
A: 16%

Q: What about the viability, T/C [30] of the same molecule?
A: 27.7%

Q: And the viability, T/C [31]?
A: 36.2%

Q: What about the viability, T/C [32] of the same molecule?
A: 33.5%

Q: What about the viability, T/C [33] of the same molecule?
A: 20.9%

Q: What about the viability, T/C [34] of the same molecule?
A: 31.6%

Q: What about the viability, T/C [35] of the same molecule?
A: 9.65%

Q: What about the viability, T/C [36] of the same molecule?
A: 13.1%
